Measurements as given in patent publication US20160145257A1, “SUBSTITUTED XANTHINES AND METHODS OF USE THEREOF” (Hydra Biosciences, Inc., priority 2013, published 2016).

How the values were obtained:
[1] = target: T1, hTRPC5 (Homo sapiens, UniProt Q9UL62); test: Whole-cell patch clamp, block of LaCl3-activated TRPC5 inward current; type: cell-based; settings: TRPC5-expressing HEK293 TREx cells, 80 μM LaCl3, inward current, IC50 estimated from 5 μM and 500 nM, read-out: hTRPC5 Patch La3+ Inwd (nM) (All Batches)
T1 construct: expressed in transfected cells; host or cells: HEK293 TREx cells with inducible TRPC5 expression
T1 sequence (Q9UL62 1-973): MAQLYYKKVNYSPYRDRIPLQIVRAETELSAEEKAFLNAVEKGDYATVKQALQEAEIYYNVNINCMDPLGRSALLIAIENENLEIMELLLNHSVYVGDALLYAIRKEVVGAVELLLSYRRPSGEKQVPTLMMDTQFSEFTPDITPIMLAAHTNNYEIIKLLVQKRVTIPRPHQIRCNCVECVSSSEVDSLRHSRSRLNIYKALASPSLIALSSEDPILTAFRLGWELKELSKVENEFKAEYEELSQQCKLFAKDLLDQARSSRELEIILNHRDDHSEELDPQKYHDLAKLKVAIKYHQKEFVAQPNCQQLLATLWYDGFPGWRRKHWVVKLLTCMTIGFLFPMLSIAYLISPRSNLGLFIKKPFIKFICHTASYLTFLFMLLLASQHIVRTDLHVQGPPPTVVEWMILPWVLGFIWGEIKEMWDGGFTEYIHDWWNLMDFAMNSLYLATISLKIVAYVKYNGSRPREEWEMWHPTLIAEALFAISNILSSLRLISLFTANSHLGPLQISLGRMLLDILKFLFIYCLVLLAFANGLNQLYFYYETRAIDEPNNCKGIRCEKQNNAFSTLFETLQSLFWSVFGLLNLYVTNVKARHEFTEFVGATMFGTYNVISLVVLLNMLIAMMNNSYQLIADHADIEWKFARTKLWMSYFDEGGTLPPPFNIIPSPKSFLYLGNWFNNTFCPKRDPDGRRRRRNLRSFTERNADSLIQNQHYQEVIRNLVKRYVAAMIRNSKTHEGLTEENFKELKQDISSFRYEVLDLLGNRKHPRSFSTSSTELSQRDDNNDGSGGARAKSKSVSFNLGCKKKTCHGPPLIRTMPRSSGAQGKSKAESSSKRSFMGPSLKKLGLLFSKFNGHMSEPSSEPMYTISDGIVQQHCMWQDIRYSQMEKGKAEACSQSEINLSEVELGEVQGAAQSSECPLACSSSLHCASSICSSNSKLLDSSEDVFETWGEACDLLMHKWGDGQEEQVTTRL
Outline: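 Whole-cell recordings in induced TRPC5-expressing HEK293 TREx cells, holding −40 mV, 400 ms ramps −120 to +100 mV every 5 s; current activated by 80 μM external LaCl3 and 1,400 nM pipette free Ca2+ (pH 7.2 internal, 7.4 external). Inward block at −80 mV, with LaCl3 present; IC50 estimated from testing at 5 μM and 500 nM.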

[2] = target: T2, hTRPC4 (Homo sapiens, UniProt Q9UBN4); test: Whole-cell patch clamp, block of TRPC4 inward current; type: cell-based; settings: read-out: hTRPC4 Patch Inwd (nM) (All Batches)
T2 sequence (Q9UBN4 1-977): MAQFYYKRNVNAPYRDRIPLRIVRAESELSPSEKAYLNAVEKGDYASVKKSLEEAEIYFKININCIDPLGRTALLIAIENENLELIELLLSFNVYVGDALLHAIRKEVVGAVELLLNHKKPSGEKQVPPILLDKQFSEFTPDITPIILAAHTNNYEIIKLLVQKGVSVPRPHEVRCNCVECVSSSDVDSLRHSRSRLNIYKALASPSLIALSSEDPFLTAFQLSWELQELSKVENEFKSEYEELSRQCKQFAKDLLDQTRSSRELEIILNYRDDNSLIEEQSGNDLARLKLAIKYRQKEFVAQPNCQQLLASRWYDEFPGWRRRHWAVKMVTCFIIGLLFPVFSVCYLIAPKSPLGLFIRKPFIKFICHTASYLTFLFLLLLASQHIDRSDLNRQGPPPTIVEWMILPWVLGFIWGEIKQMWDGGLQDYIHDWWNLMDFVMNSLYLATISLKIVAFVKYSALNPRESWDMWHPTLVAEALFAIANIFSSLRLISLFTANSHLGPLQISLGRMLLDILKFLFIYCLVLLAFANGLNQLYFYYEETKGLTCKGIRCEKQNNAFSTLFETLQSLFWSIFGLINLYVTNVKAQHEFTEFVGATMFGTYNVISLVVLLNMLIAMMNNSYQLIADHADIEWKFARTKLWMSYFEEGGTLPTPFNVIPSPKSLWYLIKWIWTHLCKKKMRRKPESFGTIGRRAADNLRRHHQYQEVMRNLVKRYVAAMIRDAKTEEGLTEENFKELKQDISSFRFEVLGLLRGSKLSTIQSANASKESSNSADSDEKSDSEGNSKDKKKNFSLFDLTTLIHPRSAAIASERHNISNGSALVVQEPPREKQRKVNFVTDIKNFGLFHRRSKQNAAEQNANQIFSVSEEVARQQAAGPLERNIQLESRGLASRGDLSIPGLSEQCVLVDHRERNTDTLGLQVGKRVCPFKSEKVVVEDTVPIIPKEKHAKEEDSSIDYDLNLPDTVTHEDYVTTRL

IC50 [1] [nM] | IC50 [2] [nM] | Structure (SMILES)
2000 to 10000 | – | CCCOCCc1nc2c(c(=O)n(C)c(=O)n2C)n1Cc1cccc(OC)c1 [Compound 91]
500 to 1000 | – | CCc1coc(CSc2nc3c(c(=O)n(C)c(=O)n3C)n2Cc2cccc(OC)c2)n1 [Compound 130, 8-((4-ethyloxazol-2-yl)methylthio)-7-(3-methoxybenzyl)-1,3-dimethyl-1H-purine-2,6(3H,7H)-dione]
100 to 500 | – | CCc1coc(CSc2nc3c(c(=O)n(C)c(=O)n3C)n2Cc2ccc(OC(F)(F)F)cc2)n1 [Compound 148, 8-((4-ethyloxazol-2-yl)methylthio)-1,3-dimethyl-7-(4-(trifluoromethoxy)benzyl)-1H-purine-2,6(3H,7H)-dione]
2000 to 10000 | – | CCCC(=O)CCOc1nc2c(c(=O)n(C)c(=O)n2C)n1Cc1cccc(Br)c1 [Compound 120]

Second part, the compound before the results:

Structure (SMILES) | IC50 [1] [nM] | IC50 [2] [nM]
Cn1c(=O)c2c(nc(Oc3cccc(OC(F)(F)F)c3)n2Cc2ccc(Cl)cc2)n(C)c1=O [Compound 142, 7-(4-chlorobenzyl)-1,3-dimethyl-8-(3-(trifluoromethoxy)phenoxy)-1H-purine-2,6(3H,7H)-dione] | < 100 | < 100
Cn1c(=O)c2c(nc(Cc3cccc(C#N)c3)n2Cc2cccc(Br)c2)n(C)c1=O [Compound 101] | 2000 to 10000 | –
Cn1c(=O)c2c(nc(Oc3cccc(OC(F)(F)F)c3)n2Cc2ccc(Cl)c(Cl)c2)n(C)c1=O [Compound 197, 7-(3,4-dichlorobenzyl)-1,3-dimethyl-8-(3-(trifluoromethoxy)phenoxy)-1H-purine-2,6(3H,7H)-dione] | < 100 | –
